Data reported in paper PMC9388626, “STUB1 is an intracellular checkpoint for interferon gamma sensing” (Scientific Reports, 2022).

How the values were obtained:
Type in all cases: cell-based, human
[1] = tested on: MCF7 cells; experiment: Growth inhibition, CellTiter-Glo 2.0 (ATP); settings: MCF7, 10 ng ml^−1, 6 days
Procedure: (§1) Parental and CRISPR-edited tumour cells were seeded in a cell density of 1800 (DU145), 2000 (PC-3), or 10,000 (MCF7) per well in 96-well CellCarrier plate (PelkinElmer, #6005550) filled with 50 µl culture media + 10% FBS. After 20–24 h incubation, the cells were treated with 10 ng ml^−1 of recombinant human IFNγ (R&D Systems, 285-IF-100), 10 ng ml^−1 of recombinant human TNFα (R&D Systems, 210-TA-020/CF) or a combination of both, by adding an equal volume of the complete culture media containing the cytokines. After incubating for 6 days without media change, the CellTiter-Glo 2.0 (Promega, G9243) or CellTiter-Fluor (Promega, G6082) assay were performed according to manufacturer’ instructions. The luminescence or fluorescence (Ex: 380–400 nm, Em: 505 nm) were detected by Inifinte M1000 PRO (Tecan). For CellTiter-Fluor, triplicate wells without cells were included to determine background fluorescence and the signal average was used for background substraction.

[2] = tested on: MCF7 cells; experiment: Growth inhibition, CellTiter-Fluor (live-cell protease activity); parameters: scale not given here; settings: 10 ng ml-1 each, 6-day
Procedure: as §1

[3] = tested on: PC-3 cells; experiment: as above; parameters: scale not given here; settings: 10 ng ml-1 each, 6-day
Procedure: as §1

[4] = tested on: DU145 cells; experiment: as above; parameters: scale not given here; settings: 10 ng ml-1 each, 6-day
Procedure: as §1

## TNFα
[1]
  Growth inhibition of PTPN2- or STUB1-null cells: could sensitize MCF7 breast tumour cell
[2]; MCF7 PTPN2 sgRNA, replicate 1
  FC in live-cell protease activity relative to parental cells: -0.29
[2]; MCF7 PTPN2 sgRNA, replicate 2
  FC in live-cell protease activity relative to parental cells: -0.31
[2]; MCF7 PTPN2 sgRNA, replicate 3
  FC in live-cell protease activity relative to parental cells: -0.32
[2]; MCF7 Parental, replicate 1
  FC in live-cell protease activity relative to parental cells: 0.00519
[2]; MCF7 Parental, replicate 2
  FC in live-cell protease activity relative to parental cells: -0.01
[2]; MCF7 Parental, replicate 3
  FC in live-cell protease activity relative to parental cells: 0.00479
[2]; MCF7 STUB1 sgRNA, replicate 1
  FC in live-cell protease activity relative to parental cells: -0.18
[2]; MCF7 STUB1 sgRNA, replicate 2
  FC in live-cell protease activity relative to parental cells: -0.39
[2]; MCF7 STUB1 sgRNA, replicate 3
  FC in live-cell protease activity relative to parental cells: -0.36
[2]; MCF7 control sgRNA, replicate 1
  FC in live-cell protease activity relative to parental cells: -0.14
[2]; MCF7 control sgRNA, replicate 2
  FC in live-cell protease activity relative to parental cells: -0.16
[2]; MCF7 control sgRNA, replicate 3
  FC in live-cell protease activity relative to parental cells: -0.18
[3]; PC-3 PTPN2 sgRNA, replicate 1
  FC in live-cell protease activity relative to parental cells: 0.08
[3]; PC-3 PTPN2 sgRNA, replicate 2
  FC in live-cell protease activity relative to parental cells: -0.06
[3]; PC-3 PTPN2 sgRNA, replicate 3
  FC in live-cell protease activity relative to parental cells: 0.13
[3]; PC-3 Parental, replicate 1
  FC in live-cell protease activity relative to parental cells: 0.11
[3]; PC-3 Parental, replicate 2
  FC in live-cell protease activity relative to parental cells: -0.05
[3]; PC-3 Parental, replicate 3
  FC in live-cell protease activity relative to parental cells: -0.07
[3]; PC-3 STUB1 sgRNA, replicate 1
  FC in live-cell protease activity relative to parental cells: 0.20
[3]; PC-3 STUB1 sgRNA, replicate 2
  FC in live-cell protease activity relative to parental cells: 0.00375
[3]; PC-3 STUB1 sgRNA, replicate 3
  FC in live-cell protease activity relative to parental cells: -0.0246
[3]; PC-3 control sgRNA, replicate 1
  FC in live-cell protease activity relative to parental cells: 0.19
[3]; PC-3 control sgRNA, replicate 2
  FC in live-cell protease activity relative to parental cells: 0.026
[3]; PC-3 control sgRNA, replicate 3
  FC in live-cell protease activity relative to parental cells: -0.06
[4]; DU145 PTPN2 sgRNA, replicate 1
  FC in live-cell protease activity relative to parental cells: 0.07
[4]; DU145 PTPN2 sgRNA, replicate 2
  FC in live-cell protease activity relative to parental cells: 0.13
[4]; DU145 PTPN2 sgRNA, replicate 3
  FC in live-cell protease activity relative to parental cells: -0.00707
[4]; DU145 Parental, replicate 1
  FC in live-cell protease activity relative to parental cells: -0.0322
[4]; DU145 Parental, replicate 2
  FC in live-cell protease activity relative to parental cells: 0.08
[4]; DU145 Parental, replicate 3
  FC in live-cell protease activity relative to parental cells: -0.05
[4]; DU145 STUB1 sgRNA, replicate 1
  FC in live-cell protease activity relative to parental cells: 0.0056
[4]; DU145 STUB1 sgRNA, replicate 2
  FC in live-cell protease activity relative to parental cells: 0.0106
[4]; DU145 STUB1 sgRNA, replicate 3
  FC in live-cell protease activity relative to parental cells: 0.16
[4]; DU145 control sgRNA, replicate 1
  FC in live-cell protease activity relative to parental cells: -0.0256
[4]; DU145 control sgRNA, replicate 2
  FC in live-cell protease activity relative to parental cells: -0.00666
[4]; DU145 control sgRNA, replicate 3
  FC in live-cell protease activity relative to parental cells: -0.0248
